Laboratory results: patent US20200277262A1, “N-(CYANO-SUBSTITUTED BENZYL OR PYRIDINYLMETHYL)-3-HYDROXYPICOLINAMIDE DERIVATIVES” (Takeda Pharmaceutical Company Limited, priority 2017, published 2020)

Experiments:
[1] = biological target: T1, PHD2 enzyme (residues 181-417) (Homo sapiens, UniProt Q9GZT9); assay: Inhibition of PHD2 Enzyme (LC/MS detection of hydroxylated peptide); assay type: biochemical; settings: 5 nM enzyme, 1 μM biotin-labeled peptide, 2 μM 2-oxoglutarate, 60 min pre-incubation, pH 7.3; -log(IC50), IC50 molar; read-out: Inhibition of PHD2 (pIC50) (converted)
T1 construct: The IC50 values for the PHD2 enzyme (residues 181-417) were determined
Description: The IC50 values for the PHD2 enzyme (residues 181-417) were determined by mixing increasing amounts of an inhibitor with a fixed amount of enzyme (5 nM, final concentration) and Biotin-labeled peptide (Biotin-Asp-Leu-Glu-Met-Leu-Ala-Pro-Tyr-Ile-Pro-Met-Asp-Asp-Asp-Phe-Gln-Leu, 1 μM final concentration) and 2-oxyglutarate (2 μM final concentration) in 50 mM HEPES, 50 mM KCl, 0.5 mM TCEP, 2 μM FeCl2, 0.1 mg/mL BSA, at pH 7.3. The reaction was conducted by pre-incubating the enzyme in the presence of the inhibitor for 60 minutes at room temperature. The activity of the free enzyme was measured by adding the peptide, the 2-oxoglutarate, and ascorbic acid (1 mM final concentration). The enzymatic activity was quenched after 60 minutes by adding an excess of a tight binding inhibitor to the assay mixture. The amount of product released was measured by using a LC/MS system (Agilent HPLC with Applied Biosystems API3000 Mass Spectrometer). Data were analyzed using the classical isotherm equation for the determination of IC50 values and are reported in Table 1, below, as pIC50, i.e., −log(IC50), where IC50 is molar concentration of the test compound at 50% inhibition.
(§1) Table 1 lists biological data for some of the compounds shown in the examples, where larger pIC50 and pEC50 values represent higher potency or activity, respectively. The IC50 data (reported in Table 1 as pIC50) were obtained using the enzyme-based assay described in the specification under the heading “Inhibition of PHD2 Enzyme.” The EC50 data (reported in Table 1 as pEC50) were obtained using the cell-based assay described in the specification under the heading “Cell-based HIF-α Stabilization Assay.”

[2] = system: HIF1a protein content in H9c2 rat cardiomyocytes; assay: Cell-based HIF-α Stabilization Assay (HIF1a ELISA); settings: H9c2 cells, 24 hours compound incubation, concentration giving 50% of desferrioxamine maximum response, -log(EC50), EC50 molar, read-out: Stabilization of HIF-α (pEC50) (converted)
Description: H9c2 rat cardiomyocytes (ATCC) were seeded in 96-well tissue culture microplates and cultured for 24 hours prior to addition of compounds (11 point range of serial dilutions) or DMSO vehicle. After 24 hours of compound incubation, whole cell extracts were prepared by lysing cells in cell extraction buffer containing protease and phosphatase inhibitors (Meso-Scale Discovery). HIF1a protein content was assessed by ELISA (Meso-Scale Discovery) and expressed as % relative to the maximum response obtained from the positive control, desferrioxamine (Sigma-Aldrich). EC50 for each compound was obtained by curve-fitting using XLfit4 MicroSoft Excel curve-fitting software to calculate the compound concentration that results in 50% of the desferrioxamine maximum response.
as §1

T1 sequence (Q9GZT9 181-417): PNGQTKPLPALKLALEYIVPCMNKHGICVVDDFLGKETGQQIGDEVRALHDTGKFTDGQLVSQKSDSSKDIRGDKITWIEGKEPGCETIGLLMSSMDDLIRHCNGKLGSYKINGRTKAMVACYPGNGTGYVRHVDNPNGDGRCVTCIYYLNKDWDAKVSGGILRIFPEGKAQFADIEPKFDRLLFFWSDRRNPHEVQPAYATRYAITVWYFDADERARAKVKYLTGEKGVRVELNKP

SMILES | IC50 [1] [nM] | EC50 [2] [nM]
CC(NC(=O)c1ncccc1O)c1ccc(C#N)cc1 (centres unmarked) [Example 39, N-(1-(4-cyanophenyl)ethyl)-3-hydroxypicolinamide] | 1580 | 50100
COCCCNc1cnc(C(=O)NCc2c(C)cc(C#N)cc2C)c(O)c1 [Example 40, N-(4-cyano-2,6-dimethylbenzyl)-3-hydroxy-5-((3-methoxypropyl)amino)picolinamide] | 31.6 | 2510
CCN1CCN(c2cnc(C(=O)NCc3c(C)cc(C#N)cc3C)c(O)c2)CC1 [Example 41, N-(4-cyano-2,6-dimethylbenzyl)-5-(4-ethylpiperazin-1-yl)-3-hydroxypicolinamide] | 79.4 | 6310
Cc1cc(C#N)cc(C)c1CNC(=O)c1ncc(N2CCN(CC(F)F)CC2)cc1O [Example 42, N-(4-cyano-2,6-dimethylbenzyl)-5-(4-(2,2-difluoroethyl)piperazin-1-yl)-3-hydroxypicolinamide] | 39.8 | 3980
